Tested on: p-IKKa levels in L363 (NIK translocated multiple myeloma) cells
Assay: Assay 2: Effect of compounds on p-IKKa levels in L363 (NIK translocated multiple myeloma) cells
Assay type: cell-based
Conditions: Homo sapiens, L-363, 6 h, read-out: Assay 2 IC50 (nM), p-IKKa (Ser 176/180) in BAFF stimulated L363 cells with MG132, 6 h; average if tested more than once
How it was run: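 Read-out is p-IKKa Ser176/180 by AlphaLISA SureFire in lysates. Cells were BAFF-primed (250 ng/ml) overnight or left unstimulated, then exposed 6 h at 37 °C to compound with MG132 (10 μM), 0.3% DMSO. IC50 from sigmoidal curve fit, normalized between stimulated and unstimulated controls.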

Q: Which IC50 does the source give for `Cc1c(Nc2nccc(-c3cccc(-c4cc([C@@]5(O)CCN(C)C5=O)on4)n3)n2)cnn1C1CCOCC1` [Example 187, (S)-3-Hydroxy-1-methyl-3-(3-(6-(2-((5-methyl-1-(tetrahydro-2H-pyran-4-yl)-1H-pyrazol-4-yl)amino)pyrimidin-4-yl)pyridin-2-yl)isoxazol-5-yl)pyrrolidin-2-one] here?
A: The IC50 was less than 50 nM.

Q: For `Cc1ncccc1Nc1nccc(-c2cccc(-n3cc([C@]4(O)CCN(C)C4=O)nn3)n2)n1` [Example 190, (R)-3-Hydroxy-1-methyl-3-(1-(6-(2-((2-methylpyridin-3-yl)amino)pyrimidin-4-yl)pyridin-2-yl)-1H-1,2,3-triazol-4-yl)pyrrolidin-2-one], which IC50 is on record?
A: The IC50 was less than 50 nM.

Q: `Cc1cc(Nc2nccc(-c3cccc(-n4cc([C@]5(O)CCN(C)C5=O)nn4)n3)n2)ccn1` [Example 191, (R)-3-Hydroxy-1-methyl-3-(1-(6-(2-((2-methylpyridin-4-yl)amino)pyrimidin-4-yl)pyridin-2-yl)-1H-1,2,3-triazol-4-yl)pyrrolidin-2-one] was tested. Which IC50 did it give?
A: Its IC50 is less than 50 nM.

Q: Which IC50 does the source give for `CN1CC[C@@](O)(c2cc(-c3cccc(-c4ccnc(Nc5cc6n(n5)CC(C)(C)OC6)n4)n3)no2)C1=O` [Example 192, (R)-3-(3-(6-(2-((6,6-Dimethyl-6,7-dihydro-4H-pyrazolo[5,1-c][1,4]oxazin-2-yl)amino)pyrimidin-4-yl)pyridin-2-yl)isoxazol-5-yl)-3-hydroxy-1-methylpyrrolidin-2-one] here?
A: Its IC50 is less than 50 nM.

Q: For `[2H]c1cc(-c2cccc(-n3cc([C@]4(O)CCN(C)C4=O)nn3)n2)nc(Nc2ccn(C)n2)n1` [Example 193, (R)-3-Hydroxy-1-methyl-3-(1-(6-(2-((1-methyl-1H-pyrazol-3-yl)amino)pyrimidin-4-yl-6-d)pyridin-2-yl)-1H-1,2,3-triazol-4-yl)pyrrolidin-2-one], which IC50 is on record?
A: The IC50 was less than 50 nM.

Q: For `CN1CC[C@@](O)(c2cc(-c3cccc(-c4ccnc(Nc5cnn6c5OCCC6)n4)n3)no2)C1=O` [Example 194, (R)-3-(3-(6-(2-((6,7-Dihydro-5H-pyrazolo[5,1-b][1,3]oxazin-3-yl)amino)pyrimidin-4-yl)pyridin-2-yl)isoxazol-5-yl)-3-hydroxy-1-methylpyrrolidin-2-one], which IC50 is on record?
A: Its IC50 is less than 50 nM.

Q: Which IC50 does the source give for `Cc1cc(Nc2nccc(-c3cccc(-c4cc([C@]5(O)CCN(C)C5=O)on4)n3)n2)ccn1` [Example 196, (R)-3-Hydroxy-1-methyl-3-(3-(6-(2-((2-methylpyridin-4-yl)amino)pyrimidin-4-yl)pyridin-2-yl)isoxazol-5-yl)pyrrolidin-2-one] here?
A: Its IC50 is less than 50 nM.

Q: With `Cc1ncccc1Nc1nccc(-c2cccc(-c3cc([C@]4(O)CCN(C)C4=O)on3)n2)n1` [Example 197, (R)-3-Hydroxy-1-methyl-3-(3-(6-(2-((2-methylpyridin-3-yl)amino)pyrimidin-4-yl)pyridin-2-yl)isoxazol-5-yl)pyrrolidin-2-one] as the compound, how does the IC50 read?
A: Its IC50 is less than 50 nM.

Q: `[2H]c1cc(-c2cccc(-c3cc([C@]4(O)CCN(C)C4=O)no3)n2)nc(Nc2ccn(C)n2)n1` [Example 200, (R)-3-Hydroxy-1-methyl-3-(5-(6-(2-((1-methyl-1H-pyrazol-3-yl)amino)pyrimidin-4-yl-6-d)pyridin-2-yl)isoxazol-3-yl)pyrrolidin-2-one] was tested. Which IC50 did it give?
A: The IC50 was less than 50 nM.

Q: With `CN1CC[C@@](O)(c2cc(-c3cccc(-c4ccnc(Nc5ccn(CCN)n5)n4)n3)no2)C1=O` [Example 204, (R)-3-(3-(6-(2-((1-(2-Aminoethyl)-1H-pyrazol-3-yl)amino)pyrimidin-4-yl)pyridin-2-yl)isoxazol-5-yl)-3-hydroxy-1-methylpyrrolidin-2-one] as the compound, how does the IC50 read?
A: The IC50 was 50 to 500 nM.

Q: For `CN1CC[C@@](O)(c2cn(-c3cccc(-c4ccnc(Nc5cn(C)nc5OCC(F)F)n4)n3)nn2)C1=O` [Example 205, (R)-3-(1-(6-(2-((3-(2,2-Difluoroethoxy)-1-methyl-1H-pyrazol-4-yl)amino)pyrimidin-4-yl)pyridin-2-yl)-1H-1,2,3-triazol-4-yl)-3-hydroxy-1-methylpyrrolidin-2-one], which IC50 is on record?
A: The IC50 was less than 50 nM.

Q: How did the IC50 turn out when `CN1CC[C@@](O)(c2cn(-c3cccc(-c4ccnc(Nc5cnn(C)c5)n4)n3)nn2)C1=O` [Example 206, (R)-3-Hydroxy-1-methyl-3-(1-(6-(2-((1-methyl-1H-pyrazol-4-yl)amino)pyrimidin-4-yl)pyridin-2-yl)-1H-1,2,3-triazol-4-yl)pyrrolidin-2-one] was run?
A: The IC50 was less than 50 nM.

Q: For `Cc1cc(-c2cccc(-c3cc([C@]4(O)CCN(C)C4=O)on3)n2)nc(Nc2cnn(C)c2)n1` [Example 207, (R)-3-Hydroxy-1-methyl-3-(3-(6-(6-methyl-2-((1-methyl-1H-pyrazol-4-yl)amino)pyrimidin-4-yl)pyridin-2-yl)isoxazol-5-yl)pyrrolidin-2-one], which IC50 is on record?
A: The IC50 was greater than 500 nM.

Q: `Cc1cnc(Nc2cnn(C)c2)nc1-c1cccc(-c2cc([C@]3(O)CCN(C)C3=O)on2)n1` [Example 208, (R)-3-Hydroxy-1-methyl-3-(3-(6-(5-methyl-2-((1-methyl-1H-pyrazol-4-yl)amino)pyrimidin-4-yl)pyridin-2-yl)isoxazol-5-yl)pyrrolidin-2-one] was tested. Which IC50 did it give?
A: The IC50 was greater than 500 nM.

Q: Which IC50 does the source give for `[2H]c1cc(-c2cccc(-c3cc([C@]4(O)CCN(C)C4=O)on3)n2)nc(Nc2ccn(C)n2)n1` [Example 209, (R)-3-Hydroxy-1-methyl-3-(3-(6-(2-((1-methyl-1H-pyrazol-3-yl)amino)pyrimidin-4-yl-6-d)pyridin-2-yl)isoxazol-5-yl)pyrrolidin-2-one] here?
A: The IC50 was less than 50 nM.

Q: How did the IC50 turn out when `[2H]c1cc(-c2cccc(-c3cc([C@]4(O)CCN(C)C4=O)on3)n2)nc(Nc2ccn(CC)n2)n1` [Example 210, (R)-3-(3-(6-(2-((1-Ethyl-1H-pyrazol-3-yl)amino)pyrimidin-4-yl-6-d)pyridin-2-yl)isoxazol-5-yl)-3-hydroxy-1-methylpyrrolidin-2-one] was run?
A: Its IC50 is less than 50 nM.

Q: How did the IC50 turn out when `Cc1nn(C(F)F)cc1Nc1nccc(-c2cccc(-c3cc([C@]4(O)CCN(C)C4=O)on3)n2)n1` [Example 211, (R)-3-(3-(6-(2-((1-(Difluoromethyl)-3-methyl-1H-pyrazol-4-yl)amino)pyrimidin-4-yl)pyridin-2-yl)isoxazol-5-yl)-3-hydroxy-1-methylpyrrolidin-2-one] was run?
A: Its IC50 is less than 50 nM.

Q: Which IC50 does the source give for `CN1CC[C@@](O)(c2cc(-c3cccc(-c4ccnc(Nc5ccn(C6CC6)n5)n4)n3)no2)C1=O` [Example 212, (R)-3-(3-(6-(2-((1-Cyclopropyl-1H-pyrazol-3-yl)amino)pyrimidin-4-yl)pyridin-2-yl)isoxazol-5-yl)-3-hydroxy-1-methylpyrrolidin-2-one] here?
A: The IC50 was less than 50 nM.

Q: How did the IC50 turn out when `Cc1cc(Nc2nccc(-c3cccc(-c4cc([C@]5(O)CCN(C)C5=O)no4)n3)n2)ccn1` [Example 213, (R)-3-Hydroxy-1-methyl-3-(5-(6-(2-((2-methylpyridin-4-yl)amino)pyrimidin-4-yl)pyridin-2-yl)isoxazol-3-yl)pyrrolidin-2-one] was run?
A: The IC50 was 50 to 500 nM.

Q: With `CN1CC[C@@](O)(c2cn(-c3cccc(-c4ccnc(Nc5ccn(CC(F)F)n5)n4)n3)nn2)C1=O` [Example 214, (R)-3-(1-(6-(2-((1-(2,2-Difluoroethyl)-1H-pyrazol-3-yl)amino)pyrimidin-4-yl)pyridin-2-yl)-1H-1,2,3-triazol-4-yl)-3-hydroxy-1-methylpyrrolidin-2-one] as the compound, how does the IC50 read?
A: The IC50 was less than 50 nM.

Q: For `CN1CC[C@@](O)(c2cc(-c3cccc(-c4ccnc(Nc5cnn(C6CNC6)c5)n4)n3)no2)C1=O` [Example 215, (R)-3-(3-(6-(2-((1-(Azetidin-3-yl)-1H-pyrazol-4-yl)amino)pyrimidin-4-yl)pyridin-2-yl)isoxazol-5-yl)-3-hydroxy-1-methylpyrrolidin-2-one], which IC50 is on record?
A: Its IC50 is greater than 500 nM.

Q: How did the IC50 turn out when `CN1CC[C@@](O)(c2cc(-c3cccc(-c4ccnc(Nc5cnn6ncccc56)n4)n3)no2)C1=O` [Example 216, (R)-3-Hydroxy-1-methyl-3-(3-(6-(2-(pyrazolo[1,5-b]pyridazin-3-ylamino)pyrimidin-4-yl)pyridin-2-yl)isoxazol-5-yl)pyrrolidin-2-one] was run?
A: The IC50 was less than 50 nM.

Q: Which IC50 does the source give for `CCn1ncc(Nc2nccc(-c3cccc(-c4cc([C@]5(O)CCN(C)C5=O)on4)n3)n2)c1C` [Example 217, (R)-3-(3-(6-(2-((1-Ethyl-5-methyl-1H-pyrazol-4-yl)amino)pyrimidin-4-yl)pyridin-2-yl)isoazol-5-yl)-3-hydroxy-1-methylpyrrolidin-2-one] here?
A: The IC50 was less than 50 nM.

Q: How did the IC50 turn out when `CN1CC[C@@](O)(c2cc(-c3cccc(-c4ccnc(Nc5cnc6cccnn56)n4)n3)no2)C1=O` [Example 218, (R)-3-Hydroxy-3-(3-(6-(2-(imidazo[1,2-b]pyridazin-3-ylamino)pyrimidin-4-yl)pyridin-2-yl)isoxazol-5-yl)-1-methylpyrrolidin-2-one] was run?
A: The IC50 was greater than 500 nM.

Q: With `CN1CC[C@@](O)(c2cc(-c3cccc(-c4ccnc(Nc5cnc6ccccn56)n4)n3)no2)C1=O` [Example 219, (R)-3-Hydroxy-3-(3-(6-(2-(imidazo[1,2-a]pyridin-3-ylamino)pyrimidin-4-yl)pyridin-2-yl)isoxazol-5-yl)-1-methylpyrrolidin-2-one] as the compound, how does the IC50 read?
A: Its IC50 is greater than 500 nM.

Q: For `CCn1ncc(Nc2nccc(-c3cccc(-c4cc([C@]5(O)CCN(C)C5=O)on4)n3)n2)c1OC` [Example 220, (R)-3-(3-(6-(2-((1-Ethyl-5-methoxy-1H-pyrazol-4-yl)amino)pyrimidin-4-yl)pyridin-2-yl)isoxazol-5-yl)-3-hydroxy-1-methylpyrrolidin-2-one], which IC50 is on record?
A: The IC50 was 50 to 500 nM.

Q: `CN1CC[C@@](O)(c2cc(-c3cccc(-c4ccnc(Nc5cnn6c5CCC6)n4)n3)no2)C1=O` [Example 221, (R)-3-(3-(6-(2-((5,6-Dihydro-4H-pyrrolo[1,2-b]pyrazol-3-yl)amino)pyrimidin-4-yl)pyridin-2-yl)isoxazol-5-yl)-3-hydroxy-1-methylpyrrolidin-2-one] was tested. Which IC50 did it give?
A: The IC50 was less than 50 nM.

Q: How did the IC50 turn out when `Cc1c(Nc2nccc(-c3cccc(-c4cc([C@]5(O)CCN(C)C5=O)on4)n3)n2)cnn1C` [Example 222, (R)-3-(3-(6-(2-((1,5-Dimethyl-1H-pyrazol-4-yl)amino)pyrimidin-4-yl)pyridin-2-yl)isoxazol-5-yl)-3-hydroxy-1-methylpyrrolidin-2-one] was run?
A: Its IC50 is less than 50 nM.
